Results published in ChEMBL document CHEMBL4138123, “Design, synthesis and biological evaluation of novel pyrazolochalcones as potential modulators of PI3K/Akt/mTOR pathway and inducers of apoptosis in breast cancer cells” (Eur J Med Chem, 2017).

What was measured:
[1] = test system: OVCAR-3; test: Cytotoxicity against human OVCAR3 cells assessed as cell growth at 0.01 uM after 48 hrs by sulforhodamine B assay relative to control; format: functional; details: OVCAR-3, 48 h, read-out: Activity
[2] = test system: NCI-H460; test: Cytotoxicity against human NCI-H460 cells assessed as growth inhibition after 48 hrs by sulforhodamine B assay; format: functional; details: NCI-H460, 48 h
[3] = test system: UO-31; test: Cytotoxicity against human UO31 cells assessed as cell growth at 100 uM after 48 hrs by sulforhodamine B assay relative to control; format: functional; details: UO-31, 48 h, read-out: Activity
[4] = test system: NCI/ADR-RES; test: Cytotoxicity against human NCI/ADR-RES cells assessed as cell growth at 1 uM after 48 hrs by sulforhodamine B assay relative to control; format: functional; details: read-out: Activity
[5] = test system: Hs-578T; test: Cytotoxicity against human Hs 578T cells assessed as cell growth at 100 uM after 48 hrs by sulforhodamine B assay relative to control; format: functional; details: read-out: Activity
[6] = test system: 786-0; test: Cytotoxicity against human 786-0 cells assessed as cell growth at 1 uM after 48 hrs by sulforhodamine B assay relative to control; format: functional; details: 786-0, 48 h, read-out: Activity
[7] = test system: HCT-116; test: Cytotoxicity against human HCT116 cells assessed as cell growth at 1 uM after 48 hrs by sulforhodamine B assay relative to control; format: functional; details: HCT-116, 48 h, read-out: Activity
[8] = test system: U-251; test: Cytotoxicity against human U251 cells assessed as cell growth at 100 uM after 48 hrs by sulforhodamine B assay relative to control; format: functional; details: U-251, 48 h, read-out: Activity
[9] = test system: MCF7; test: Cytotoxicity against human MCF7 cells assessed as growth inhibition after 48 hrs by MTT assay; format: functional, cell-based; details: MCF7, 48 h
[10] = test system: MDA-MB-231; test: Cytotoxicity against human MDA-MB-231 cells assessed as cell growth at 10 uM after 48 hrs by sulforhodamine B assay relative to control; format: functional; details: MDA-MB-231, 48 h, read-out: Activity
[11] = test system: COLO 205; test: Cytotoxicity against human COLO205 cells assessed as cell growth at 10 uM after 48 hrs by sulforhodamine B assay relative to control; format: functional; details: COLO 205, 48 h, read-out: Activity
[12] = test system: CCRF-CEM; test: Cytotoxicity against human CCRF-CEM cells assessed as cell growth at 0.1 uM after 48 hrs by sulforhodamine B assay relative to control; format: functional; details: read-out: Activity
[13] = test system: SK-MEL-5; test: Cytotoxicity against human SK-MEL-5 cells assessed as cell growth at 1 uM after 48 hrs by sulforhodamine B assay relative to control; format: functional; details: SK-MEL-5, 48 h, read-out: Activity
[14] = test system: M14; test: Cytotoxicity against human M14 cells assessed as growth inhibition after 48 hrs by sulforhodamine B assay; format: functional; details: M14, 48 h
[15] = test system: A549; test: Cytotoxicity against human A549/ATCC cells assessed as cell growth at 1 uM after 48 hrs by sulforhodamine B assay relative to control; format: functional; details: A549, 48 h, read-out: Activity
[16] = test system: NCI-H522; test: Cytotoxicity against human NCI-H522 cells assessed as cell growth at 1 uM after 48 hrs by sulforhodamine B assay relative to control; format: functional; details: NCI-H522, 48 h, read-out: Activity
[17] = test system: OVCAR-5; test: Cytotoxicity against human OVCAR5 cells assessed as cell growth at 10 uM after 48 hrs by sulforhodamine B assay relative to control; format: functional; details: OVCAR-5, 48 h, read-out: Activity
[18] = test system: T47D; test: Cytotoxicity against human T47D cells assessed as cell growth at 0.01 uM after 48 hrs by sulforhodamine B assay relative to control; format: functional; details: read-out: Activity
[19] = test system: HL-60(TB); test: Cytotoxicity against human HL-60(TB) cells assessed as cell growth at 0.01 uM after 48 hrs by sulforhodamine B assay relative to control; format: functional; details: HL-60, 48 h, read-out: Activity
[20] = test system: PC-3; test: Cytotoxicity against human PC3 cells assessed as cell growth at 0.01 uM after 48 hrs by sulforhodamine B assay relative to control; format: functional; details: PC-3, 48 h, read-out: Activity
[21] = test system: KM12; test: Cytotoxicity against human KM12 cells assessed as cell growth at 0.1 uM after 48 hrs by sulforhodamine B assay relative to control; format: functional; details: KM12, 48 h, read-out: Activity
[22] = test system: SNB-19; test: Cytotoxicity against human SNB19 cells assessed as cell growth at 10 uM after 48 hrs by sulforhodamine B assay relative to control; format: functional; details: SNB-19, 48 h, read-out: Activity
[23] = test system: NCI-H226; test: Cytotoxicity against human NCI-H226 cells assessed as growth inhibition after 48 hrs by sulforhodamine B assay; format: functional; details: NCI-H226, 48 h
[24] = test system: CCRF-CEM; test: Cytotoxicity against human CCRF-CEM cells assessed as cell growth at 10 uM after 48 hrs by sulforhodamine B assay relative to control; format: functional; details: read-out: Activity
[25] = test system: SK-MEL-5; test: Cytotoxicity against human SK-MEL-5 cells assessed as growth inhibition after 48 hrs by sulforhodamine B assay; format: functional; details: SK-MEL-5, 48 h
[26] = test system: NCI/ADR-RES; test: Cytotoxicity against human NCI/ADR-RES cells assessed as cell growth at 0.01 uM after 48 hrs by sulforhodamine B assay relative to control; format: functional; details: read-out: Activity
[27] = test system: SN12C; test: Cytotoxicity against human SN12C cells assessed as cell growth at 0.1 uM after 48 hrs by sulforhodamine B assay relative to control; format: functional; details: read-out: Activity
[28] = test system: SF-268; test: Cytotoxicity against human SF268 cells assessed as cell growth at 100 uM after 48 hrs by sulforhodamine B assay relative to control; format: functional; details: SF-268, 48 h, read-out: Activity
[29] = test system: MDA-MB-435; test: Cytotoxicity against human MDA-MB-435 cells assessed as cell growth at 0.01 uM after 48 hrs by sulforhodamine B assay relative to control; format: functional; details: MDA-MB-435, 48 h, read-out: Activity
[30] = test system: SW-620; test: Cytotoxicity against human SW620 cells assessed as cell growth at 1 uM after 48 hrs by sulforhodamine B assay relative to control; format: functional; details: SW-620, 48 h, read-out: Activity
[31] = test system: OVCAR-4; test: Cytotoxicity against human OVCAR4 cells assessed as cell growth at 100 uM after 48 hrs by sulforhodamine B assay relative to control; format: functional; details: OVCAR-4, 48 h, read-out: Activity
[32] = test system: U-251; test: Cytotoxicity against human U251 cells assessed as growth inhibition after 48 hrs by sulforhodamine B assay; format: functional; details: U-251, 48 h
[33] = test system: HCT-15; test: Cytotoxicity against human HCT15 cells assessed as cell growth at 1 uM after 48 hrs by sulforhodamine B assay relative to control; format: functional; details: HCT-15, 48 h, read-out: Activity
[34] = test system: MCF7; test: Cytotoxicity against human MCF7 cells assessed as cell growth at 1 uM after 48 hrs by sulforhodamine B assay relative to control; format: functional; details: MCF7, 48 h, read-out: Activity
[35] = test system: OVCAR-5; test: Cytotoxicity against human OVCAR5 cells assessed as cell growth at 100 uM after 48 hrs by sulforhodamine B assay relative to control; format: functional; details: OVCAR-5, 48 h, read-out: Activity

## COc1cc(-c2cc(/C=C/C(=O)c3ccc4c(c3)OCO4)[nH]n2)cc(OC)c1OC
[1]
  growth at 0.01 µM: 104%
[2]
  LC50: > 100000 nM
  TGI: 5100 nM
[3]
  growth at 100 µM: -79%
[4]
  growth at 1 µM: 96%
[5]
  growth at 100 µM: -2%
[6]
  growth at 1 µM: 96%
[7]
  growth at 1 µM: 90%
[8]
  growth at 100 µM: -56%
[9]
  IC50: 900 nM
[10]
  growth at 10 µM: 20%
[11]
  growth at 10 µM: -66%
[12]
  growth at 0.1 µM: 90%
[13]
  growth at 1 µM: 95%
[14]
  LC50 (concentration killing 50% of cells): > 100000 nM
  TGI: > 100000 nM
[15]
  growth at 1 µM: 92%
[16]
  growth at 1 µM: 52%
[17]
  growth at 10 µM: 16%
[18]
  growth at 0.01 µM: 100%
[19]
  growth at 0.01 µM: 98%
[20]
  growth at 0.01 µM: 100%
[21]
  growth at 0.1 µM: 95%
[22]
  growth at 10 µM: 30%
[23]
  LC50 (concentration killing 50% of cells): > 100000 nM
  TGI: > 100000 nM
[24]
  growth at 10 µM: -19%
[25]
  LC50 (concentration killing 50% of cells): > 100000 nM
  TGI: > 100000 nM
[26]
  growth at 0.01 µM: 96%
[27]
  growth at 0.1 µM: 96%
[28]
  growth at 100 µM: -26%
[29]
  growth at 0.01 µM: 96%
[30]
  growth at 1 µM: 88%
[31]
  growth at 100 µM: 3%
[32]
  LC50: 59500 nM
  TGI: 5450 nM
[33]
  growth at 1 µM: 81%
[34]
  growth at 1 µM: 65%

## COc1ccc(-c2cc(/C=C/C(=O)c3cc(OC)c(OC)c(OC)c3)[nH]n2)cc1OC
[1]
  growth at 0.01 µM: 99%
[2]
  GI50: 1040 nM
  LC50: 29900 nM
  TGI: 3600 nM
[3]
  growth at 100 µM: -93%
[4]
  growth at 1 µM: 81%
[5]
  growth at 100 µM: -16%
[35]
  growth at 100 µM: -70%
[6]
  growth at 1 µM: 81%
[7]
  growth at 1 µM: 27%
[8]
  growth at 100 µM: -94%
[9]
  IC50: 1100 nM
[10]
  growth at 10 µM: 11%
[11]
  growth at 10 µM: -72%
[12]
  growth at 0.1 µM: 91%
[13]
  growth at 1 µM: 87%
[14]
  GI50: 1800 nM
  LC50 (concentration killing 50% of cells): 7540 nM
  TGI: 3690 nM
[15]
  growth at 1 µM: 82%
[16]
  growth at 1 µM: 71%
[17]
  growth at 10 µM: -47%
[18]
  growth at 0.01 µM: 91%
[19]
  growth at 0.01 µM: 98%
[20]
  growth at 0.01 µM: 97%
[21]
  growth at 0.1 µM: 92%
[22]
  growth at 10 µM: -29%
[23]
  GI50: 1930 nM
  LC50 (concentration killing 50% of cells): > 100000 nM
  TGI: 7910 nM
[24]
  growth at 10 µM: -15%
[25]
  GI50: 1580 nM
  LC50 (concentration killing 50% of cells): 5440 nM
  TGI: 2930 nM
[26]
  growth at 0.01 µM: 97%
[27]
  growth at 0.1 µM: 99%
[28]
  growth at 100 µM: -72%
[29]
  growth at 0.01 µM: 98%
[30]
  growth at 1 µM: 70%
[32]
  GI50: 1240 nM
  LC50: 5130 nM
  TGI: 2530 nM
[33]
  growth at 1 µM: 57%
[34]
  growth at 1 µM: 53%

## COc1ccc(-c2cc(/C=C/C(=O)c3ccc4c(c3)OCO4)[nH]n2)cc1OC
[2]
  GI50: 600 nM
[9]
  IC50: 1500 nM
[14]
  GI50: 1910 nM
[23]
  GI50: 1660 nM
[25]
  GI50: 1580 nM
[32]
  GI50: 1200 nM
